# Source: patent publication US20210355104A1, “ADENOSINE RECEPTOR BINDING COMPOUNDS” (Nikang Therapeuticsm Inc., priority 2018, published 2021)
# “And” between values parts separate entries of the source, which are not always exact repeats. Equal values may be shown once. Read-outs that look alike come from different tables or passages of the source.
# Tests used:
# [1] = system: p-CREB (phosphorylated cAMP response-element binding protein) in human whole blood; assay: p-CREB assay in human whole blood by flow cytometry (NECA stimulation, CD4 staining); type: cell-based
# Protocol: Assay protocol for p-CREB (phosphorylated cAMP response-element binding protein) in human whole blood by flow cytometry
# Fresh human whole blood (Biological Specialty Corporation) was added at 100 ul per wellinto a 96-well plate and treated with test compounds (Serial dilutions of 1:3 with starting concentration at 30 uM, 11 concentrations total, in the presence of adenosine deaminase) for one hour at room temperature on a plate shaker. Then 10 ul of 10× NECA (50 uM stock in PBS) and 10 ul of 10 × Rolipram (50 uM stock in PBS) were added, with designated wells for unstimulated (Rolipram+DMSO) and stimulated (Rolipram+NECA+DMSO) conditions. The plates were mixed well and incubated at room temperature for 30 min on a plate shaker. 1× lyse/Fix buffer (5× stock, BD #558049) was warmed to 37° in a water bath. 1200 ul of pre-warmed 1× lyse/Fix buffer was then added to the plate, which was then sealed and mixed by inverting the plate a few times. The plate was then incubated for 30 min at 37° in a water bath. After incubation, the plate was centrifuged at 1600 rpm for 5 min and the supernatant was decanted, then 1200 ul PBS was added and the plate was mixed by inverting a few times followed by centrifuging at 1600 rpm for 5 min and again decanting the supernatant. Then, 200 ul FIX PERM buffer II (BD #558052) was added and the plate was mixed well, then kept on ice for 45 min After spinning the plate at 1600 rpm for 5 min the supernatant was again decanted. Then was added 200 ul staining buffer (BD #554657), and the plate was mixed well and spun at 1600 rpm for 5 min, then the supernatant was again decanted. 200 ul staining buffer was added, the plate was mixed well and the plate was sealed at this step for storage at 4° overnight or until staining. Before staining, the plate was spun at 1600 rpm for 5 min and the supernatant was again decanted. Antibody mix in staining buffer was prepared (75 ul/well, 1:50 dilution for p-CREB antibody from Cell Signaling Tech #14001S, 1:200 dilution for CD4 antibody from BD #566320) and the cells were resuspended in the above antibody mix solution. After mixing well, the plate was incubated (shielded from light) at room temperature for two hours on a plate shaker. It was then spun at 1600 rpm for 5 min and the supernatant was decanted. 200 ul staining buffer was then added to wash cells, and the plate was then mixed by shaking or pipetting. The wash step was repeated at least one more time, and after the final wash, cells were resusptended in 200 ul staining buffer in U bottom plate for flow cytometry analysis.
# Adenosine A2A receptor = Adenosine A2A receptor (Homo sapiens, UniProt P29274); assay: cAMP assay in 293A cells stably expressing the adenosine A2A receptor (CGS21680 stimulation, HTRF); type: cell-based; design: expressed in transfected cells; host or cells: 293A cells (Invitrogen, Cat# R705-07) infected with A2A-expressing lentivirus (custom packaged by Biosettia), puromycin selected; details: 293A-A2AR cells, 0.1% BSA, 1 uM CGS; read-out: cAMP (nM) 0.1% BSA, 1 uM CGS
# Chain of Adenosine A2A receptor (P29274 whole entry): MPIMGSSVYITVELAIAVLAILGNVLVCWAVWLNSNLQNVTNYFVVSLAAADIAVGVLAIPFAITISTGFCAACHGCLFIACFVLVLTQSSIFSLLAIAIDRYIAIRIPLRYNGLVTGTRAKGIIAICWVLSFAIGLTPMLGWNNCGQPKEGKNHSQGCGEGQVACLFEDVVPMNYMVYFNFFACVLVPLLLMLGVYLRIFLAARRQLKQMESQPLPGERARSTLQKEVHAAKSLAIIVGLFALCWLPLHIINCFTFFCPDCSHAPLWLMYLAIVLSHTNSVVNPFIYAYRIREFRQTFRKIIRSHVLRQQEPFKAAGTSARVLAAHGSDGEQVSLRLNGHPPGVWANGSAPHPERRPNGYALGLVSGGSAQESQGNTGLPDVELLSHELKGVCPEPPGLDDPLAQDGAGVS
IC50 [1] [nM],IC50 ([1]; Homo sapiens) [nM],IC50 (Adenosine A2A receptor),SMILES
114,82,33 nM and 168 nM and 95 nM and 126 nM,"Cc1cc(-c2c(OCc3cccc(C(C)(C)C(=O)O)n3)nc(N)nc2-c2ccc(F)cc2)cc(C(F)F)n1 [Example 263, 2-(6-(((2-amino-5-(2-(difluoromethyl)-6-methylpyridin-4-yl)-6-(4-fluorophenyl)pyrimidin-4-yl)oxy)methyl)pyridin-2-yl)-2-methylpropanoic acid]"
,141,13 nM and 26 nM and 8.7 nM,Cc1cc(-c2c(OCCN(C)c3cccc(C(C)(C)C#N)n3)nc(N)nc2-c2ccc(F)cc2)cc(C(F)F)n1 [Example 320]
,57.1,90 nM and 144 nM and 84 nM,"Cc1cc(-c2c(OCc3cccc(C4CC4)n3)nc(N)nc2-c2ccc(F)cc2)cc(C(F)F)n1 [Example 326, 4-((6-cyclopropylpyridin-2-yl)methoxy)-5-(2-(difluoromethyl)-6-methylpyridin-4-yl)-6-(4-fluorophenyl)pyrimidin-2-amine]"
,5.7,10.2 nM and 11 nM and 13 nM,"Cc1cc(-c2c(OCc3nc4ccccc4n3C(F)F)nc(N)nc2-c2ccc(F)cc2)cc(C(F)F)n1 [Example 355, 4-((1-(difluoromethyl)-1H-benzo[d]imidazol-2-yl)methoxy)-5-(2-(difluoromethyl)-6-methylpyridin-4-yl)-6-(4-fluorophenyl)pyrimidin-2-amine]"
,421,240 nM and 248 nM and 387 nM and 191 nM,"Cc1cc(-c2c(OCCN(C)c3nccc(C(C)(C)C(=O)O)n3)nc(N)nc2-c2ccc(F)cc2)cc(C(F)F)n1 [Example 373, 2-(2-((2-((2-amino-5-(2-(difluoromethyl)-6-methylpyridin-4-yl)-6-(4-fluorophenyl)pyrimidin-4-yl)oxy)ethyl)(methyl)amino)pyrimidin-4-yl)-2-methylpropanoic acid]"
,36,16 nM and 3.2 nM,"Cc1cc(-c2c(OCc3nccc4ccccc34)nc(N)nc2-c2ccc(F)cc2)cc(C(F)F)n1 [Example 381, 5-(2-(difluoromethyl)-6-methylpyridin-4-yl)-4-(4-fluorophenyl)-6-(isoquinolin-1-ylmethoxy)pyrimidin-2-amine]"
,1460,2330 nM and 1020 nM,"Cc1cc(-c2c(OCc3cccc(C(C)(C)C(=O)O)n3)nc(N)nc2-c2ccc(F)cc2)cc(C(F)(F)F)n1 [Example 385, 2-(6-(((2-amino-6-(4-fluorophenyl)-5-(2-methyl-6-(trifluoromethyl)pyridin-4-yl)pyrimidin-4-yl)oxy)methyl)pyridin-2-yl)-2-methylpropanoic acid]"
,602,1130 nM and 979 nM,"Cc1cc(-c2c(OCc3cccc(C4(C(=O)O)CC4)n3)nc(N)nc2-c2ccc(F)cc2)cc(C(F)F)n1 [Example 391, 1-(6-(((2-amino-5-(2-(difluoromethyl)-6-methylpyridin-4-yl)-6-(4-fluorophenyl)pyrimidin-4-yl)oxy)methyl)pyridin-2-yl)cyclopropane-1-carboxylic acid]"

# Further lines, the compound ahead of its results:
SMILES,IC50 [1] [nM],IC50 ([1]; Homo sapiens) [nM],IC50 (Adenosine A2A receptor)
"Cc1cc(-c2c(OCc3cccc(N(C)C)n3)nc(N)nc2-c2ccc(F)cc2)cc(C(F)F)n1 [Example 282, 5-(2-(difluoromethyl)-6-methylpyridin-4-yl)-4-((6-(dimethylamino)pyridin-2-yl)methoxy)-6-(4-fluorophenyl)pyrimidin-2-amine]",,50,90 nM and 21 nM and 100 nM
"Cc1cc(-c2c(OC3CCn4ccnc43)nc(N)nc2-c2ccc(F)cc2)cc(C(F)F)n1 (stereo not drawn) [Example 284, 5-(2-(difluoromethyl)-6-methylpyridin-4-yl)-4-((6,7-dihydro-5H-pyrrolo[1,2-a]imidazol-7-yl)oxy)-6-(4-fluorophenyl)pyrimidin-2-amine]",,392,382 nM and 289 nM
"Cc1cc(-c2c(OCc3ccnnc3)nc(N)nc2-c2ccc(F)cc2)cc(C(F)F)n1 [Example 285, 5-(2-(difluoromethyl)-6-methylpyridin-4-yl)-4-(4-fluorophenyl)-6-(pyridazin-4-ylmethoxy)pyrimidin-2-amine]",,179,378 nM and 272 nM
"Cc1cc(-c2c(OCc3ccnc(OCCO)n3)nc(N)nc2-c2ccc(F)cc2)cc(C(F)F)n1 [Example 297, 2-((4-(((2-amino-5-(2-(difluoromethyl)-6-methylpyridin-4-yl)-6-(4-fluorophenyl)pyrimidin-4-yl)oxy)methyl)pyrimidin-2-yl)oxy)ethan-1-ol]",,521,278 nM and 228 nM
Cc1cc(-c2c(OCc3cccc(OCCO)n3)nc(N)nc2-c2ccc(F)cc2)cc(C(F)F)n1 [Example 305],,61.7,196 nM
"Cc1cc(-c2c(OCc3nccn3C(F)F)nc(N)nc2-c2ccc(F)cc2)cc(C(F)F)n1 [Example 306, 4-((1-(difluoromethyl)-1H-imidazol-2-yl)methoxy)-5-(2-(difluoromethyl)-6-methylpyridin-4-yl)-6-(4-fluorophenyl)pyrimidin-2-amine]",,6.9,26 nM and 23 nM
"Cc1cc(-c2c(OCCc3ccccn3)nc(N)nc2-c2ccc(F)cc2)cc(C(F)F)n1 [Example 313, 5-(2-(difluoromethyl)-6-methylpyridin-4-yl)-4-(4-fluorophenyl)-6-(2-(pyridin-2-yl)ethoxy)pyrimidin-2-amine]",,71.5,20 nM and 64 nM
"Cc1cc(-c2c(OCc3nc4ccccc4n3C)nc(N)nc2-c2ccc(F)cc2)cc(C(F)F)n1 [Example 314, 5-(2-(difluoromethyl)-6-methylpyridin-4-yl)-4-(4-fluorophenyl)-6-((1-methyl-1H-benzo[d]imidazol-2-yl)methoxy)pyrimidin-2-amine]",,9.8,0.4 nM and 1 nM
"CCn1c(COc2nc(N)nc(-c3ccc(F)cc3)c2-c2cc(C)nc(C(F)F)c2)nc2ccccc21 [Example 315, 5-(2-(difluoromethyl)-6-methylpyridin-4-yl)-4-((1-ethyl-1H-benzo[d]imidazol-2-yl)methoxy)-6-(4-fluorophenyl)pyrimidin-2-amine]",,24.8,1.8 nM and 15 nM
"CCn1c(COc2nc(N)nc(-c3ccc(F)cc3)c2-c2cc(C)nc(C(F)F)c2)nc2cccnc21 [Example 329, 5-(2-(difluoromethyl)-6-methylpyridin-4-yl)-4-((3-ethyl-3H-imidazo[4,5-b]pyridin-2-yl)methoxy)-6-(4-fluorophenyl)pyrimidin-2-amine]",,128,87 nM and 249 nM and 153 nM
"Cc1cc(-c2c(OCCN(C)c3cccc(C(C)(C)C(=O)O)n3)nc(N)nc2-c2ccc(F)cc2)cc(C(F)F)n1 [Example 339, 2-(6-((2-((2-amino-5-(2-(difluoromethyl)-6-methylpyridin-4-yl)-6-(4-fluorophenyl)pyrimidin-4-yl)oxy)ethyl)(methyl)amino)pyridin-2-yl)-2-methylpropanoic acid]",,166,561 nM and 795 nM and 230 nM
"Cc1cc(-c2c(OCCc3cccc(C(C)(C)O)n3)nc(N)nc2-c2ccc(F)cc2)cc(C(F)F)n1 [Example 349, 2-(6-(2-((2-amino-5-(2-(difluoromethyl)-6-methylpyridin-4-yl)-6-(4-fluorophenyl)pyrimidin-4-yl)oxy)ethyl)pyridin-2-yl)propan-2-ol]",,55,261 nM and 120 nM
"Cc1cc(-c2c(OCc3nccs3)nc(N)nc2-c2ccc(F)cc2)cc(C(F)F)n1 [Example 350, 5-(2-(difluoromethyl)-6-methylpyridin-4-yl)-4-(4-fluorophenyl)-6-(thiazol-2-ylmethoxy)pyrimidin-2-amine]",,4,26.1 nM and 5.9 nM and 30 nM
"CNc1cccc(COc2nc(N)nc(-c3ccc(F)cc3)c2-c2cc(C)nc(C(F)F)c2)n1 [Example 379, 5-(2-(difluoromethyl)-6-methylpyridin-4-yl)-4-(4-fluorophenyl)-6-((6-(methylamino)pyridin-2-yl)methoxy)pyrimidin-2-amine]",10.7,13.1,230 nM and 119 nM and 72 nM
"CNC(C)(C)c1cccc(COc2nc(N)nc(-c3ccc(F)cc3)c2-c2cc(C)nc(C(F)F)c2)n1 [Example 389, 5-(2-(difluoromethyl)-6-methylpyridin-4-yl)-4-(4-fluorophenyl)-6-((6-(2-(methylamino)propan-2-yl)pyridin-2-yl)methoxy)pyrimidin-2-amine]",,60,231 nM and 114 nM and 100 nM
